# Source: patent publication US12174198B2, “Methods of characterizing condensate-associated characteristics of compounds and uses thereof” (Dewpoint Therapeutics, Inc., priority 2019, dated 2024)
# How the values were obtained:
# Assay type in all cases: physicochemical
# FUS-SNAP condensates = molecular target: T1, FUS-SNAP condensates (Homo sapiens, UniProt P35637); assay: Fluorescence imaging of dye partitioning in FUS-SNAP condensates (I-in, I-out); details: for Ratio of intensity inside:outside FUS-SNAP Condensates Day 1 / Ratio of intensity inside:outside FUS-SNAP Condensates Day 2 / Ratio of intensity inside:outside FUS-SNAP Condensates Average: I-in:I-out; for Ratio of intensity inside:outside FUS-SNAP Condensates Day 1 / Ratio of intensity inside:outside FUS-SNAP Condensates Day 2 / Ratio of intensity inside:outside FUS-SNAP Condensates Average / Intensity Inside with Dye Average / Intensity Inside with Dye 1 / Intensity Inside with Dye 2 / Intensity Inside with Dye 3 / Intensity Outside with Dye Average / Intensity Outside with Dye 1 / Intensity Outside with Dye 2 / Intensity Outside with Dye 3: 10 μM dye; for Ratio of intensity inside:outside FUS-SNAP Condensates Average: average of two days; for Intensity Inside with Dye Average / Intensity Inside with Dye 1 / Intensity Inside with Dye 2 / Intensity Inside with Dye 3 / Intensity Inside Dye-No Dye: inside FUS-SNAP condensate; for Intensity Inside with Dye Average / Intensity Inside with Dye 1 / Intensity Inside with Dye 2 / Intensity Inside with Dye 3 / Intensity Outside with Dye Average / Intensity Outside with Dye 1 / Intensity Outside with Dye 2 / Intensity Outside with Dye 3: 5 μM protein; for Intensity Inside with Dye Average / Intensity Outside with Dye Average: average of three images; for Intensity Inside with Dye Average / Intensity Inside with Dye 1 / Intensity Inside with Dye 2 / Intensity Inside with Dye 3 / Intensity Inside Dye-No Dye / Intensity Outside with Dye Average / Intensity Outside with Dye 1 / Intensity Outside with Dye 2 / Intensity Outside with Dye 3 / Intensity Outside (Dye-No Dye): one day of experiments; for Intensity Inside with Dye 1 / Intensity Outside with Dye 1: image 1; for Intensity Inside with Dye 2 / Intensity Outside with Dye 2: image 2; for Intensity Inside with Dye 3 / Intensity Outside with Dye 3: image 3; for Intensity Inside Dye-No Dye / Intensity Outside (Dye-No Dye): background corrected; for Intensity Outside with Dye Average / Intensity Outside with Dye 1 / Intensity Outside with Dye 2 / Intensity Outside with Dye 3 / Intensity Outside (Dye-No Dye): outside FUS-SNAP condensate
# T1 sequence (P35637 1-526): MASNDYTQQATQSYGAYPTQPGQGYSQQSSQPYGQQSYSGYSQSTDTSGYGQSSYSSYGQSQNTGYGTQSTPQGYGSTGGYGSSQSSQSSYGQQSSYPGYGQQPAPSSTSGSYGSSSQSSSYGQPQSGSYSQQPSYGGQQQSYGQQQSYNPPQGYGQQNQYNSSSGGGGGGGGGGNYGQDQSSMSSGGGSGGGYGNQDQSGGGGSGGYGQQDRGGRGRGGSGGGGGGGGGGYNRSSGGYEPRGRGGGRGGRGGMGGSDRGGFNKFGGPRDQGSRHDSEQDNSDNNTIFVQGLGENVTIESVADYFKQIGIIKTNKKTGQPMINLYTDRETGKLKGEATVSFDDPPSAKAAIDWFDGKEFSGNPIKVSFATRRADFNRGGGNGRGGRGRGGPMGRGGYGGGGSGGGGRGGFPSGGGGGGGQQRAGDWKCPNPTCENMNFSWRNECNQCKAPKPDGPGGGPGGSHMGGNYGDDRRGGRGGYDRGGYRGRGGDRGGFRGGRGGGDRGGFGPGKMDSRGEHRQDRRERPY
# Procedure: (§1) All dye-stocks were stored as 1 mM solutions in 100% DMSO. The dyes were dissolved in dilution buffer (DB: 14.7 mM Tris, pH 7.25, 1 mM DTT) to yield 11.765 μM dye in 1.1765 DMSO. 17 μl of dye was distributed in a 384 well non-binding plate (Greiner).
# (§2) Either SNAP-tagged FUS protein or tag-free PGL-3 protein was thawed at room temperature for at least 10 min, and the buffer was exchanged to partitioning buffer (PB: 50 mM Tris pH 7.25, 500 mM KCl, 5% Glycerol, and 1 mM DTT). The protein was then diluted to 33.3 μM in PB. 3 μl of protein solution were added to the 384 well plate to initiate phase separation, yielding 20 μl of 5 μM protein and 10 μM dye in 75 mM KCl, 0.75% Glycerol, 20 mM Tris, 1 mM DTT, and 1% DMSO or for no dye control reactions, 20 μl of 5 μM protein in 75 mM KCl, 0.75% Glycerol, 20 mM Tris, 1 mM DTT.
# (§3) A spinning disk confocal microscope was used to acquire images of the samples. A 60×oil high-NA objective lens was used to capture the condensate droplets. The laser power was set to 20% and the exposure times were adjusted to the fluorescence emission intensity specific for each dye. Exposure times ranged from 1-1000 ms. Appropriate filter settings were used, matching the excitation and emission spectra of the respective dyes. Three images per well were taken. The background signal of protein droplets in the absence of dye was recorded for all applied imaging conditions.
# (§4) Fluorescence intensity was measured inside one exemplary target condensate (Intensity inside, I-in) per image and in a region next to the exemplary target condensate (Intensity outside, I-out) by hand using the image analysis software Fiji. An example depicting the regions measured is shown FIG. 2A. Three I-in and three I-out values were measured in total for each dye in each experiment and were averaged. The measured I-in and I-out values for FUS-SNAP condensates on one day of experiments are shown in Table 2 and Table 3, respectively. The measured I-in and I-out values for PGL-3 condensates on one day of experiments are shown in Table 4 and Table 5, respectively. All values were background corrected, based on the background images (no dye controls) taken with the same microscope conditions.
# (§5) The ratios of the average intensity measured in the target condensates and outside of the target condensates were calculated by dividing I-in by I-out, although dividing I-out by I-in could also have been used. The I-in:I-out ratios determined from the two different days of experiments were then averaged. The average I-in:I-out ratios for FUS-SNAP condensates are shown in FIG. 3 and the average I-in:I-out ratios for PGL-3 condensates are shown in FIG. 4. The standard deviation between the two experiments is represented by the error bars in FIG. 3 and FIG. 4.
# PGL-3 condensates = molecular target: T2, PGL-3 condensates (Caenorhabditis elegans, UniProt G5EBV6); assay: Fluorescence imaging of dye partitioning in PGL-3 condensates (I-in, I-out); details: for Intensity Inside with Dye Average / Intensity Inside with Dye 1 / Intensity Inside with Dye 2 / Intensity Inside with Dye 3 / Intensity Inside Dye-No Dye: inside PGL-3 condensate; for Intensity Inside with Dye Average / Intensity Inside with Dye 1 / Intensity Inside with Dye 2 / Intensity Inside with Dye 3 / Intensity Outside with Dye Average / Intensity Outside with Dye 1 / Intensity Outside with Dye 2 / Intensity Outside with Dye 3: 5 μM protein; for Intensity Inside with Dye Average / Intensity Outside with Dye Average: average of three images; for Intensity Inside with Dye Average / Intensity Inside with Dye 1 / Intensity Inside with Dye 2 / Intensity Inside with Dye 3 / Intensity Inside Dye-No Dye / Intensity Outside with Dye Average / Intensity Outside with Dye 1 / Intensity Outside with Dye 2 / Intensity Outside with Dye 3 / Intensity Outside (Dye-No Dye): one day of experiments; for Intensity Inside with Dye 1 / Intensity Outside with Dye 1: image 1; for Intensity Inside with Dye 2 / Intensity Outside with Dye 2: image 2; for Intensity Inside with Dye 3 / Intensity Outside with Dye 3: image 3; for Intensity Inside Dye-No Dye / Intensity Outside (Dye-No Dye): background corrected; for Intensity Outside with Dye Average / Intensity Outside with Dye 1 / Intensity Outside with Dye 2 / Intensity Outside with Dye 3 / Intensity Outside (Dye-No Dye): outside PGL-3 condensate
# T2 sequence (G5EBV6 1-693): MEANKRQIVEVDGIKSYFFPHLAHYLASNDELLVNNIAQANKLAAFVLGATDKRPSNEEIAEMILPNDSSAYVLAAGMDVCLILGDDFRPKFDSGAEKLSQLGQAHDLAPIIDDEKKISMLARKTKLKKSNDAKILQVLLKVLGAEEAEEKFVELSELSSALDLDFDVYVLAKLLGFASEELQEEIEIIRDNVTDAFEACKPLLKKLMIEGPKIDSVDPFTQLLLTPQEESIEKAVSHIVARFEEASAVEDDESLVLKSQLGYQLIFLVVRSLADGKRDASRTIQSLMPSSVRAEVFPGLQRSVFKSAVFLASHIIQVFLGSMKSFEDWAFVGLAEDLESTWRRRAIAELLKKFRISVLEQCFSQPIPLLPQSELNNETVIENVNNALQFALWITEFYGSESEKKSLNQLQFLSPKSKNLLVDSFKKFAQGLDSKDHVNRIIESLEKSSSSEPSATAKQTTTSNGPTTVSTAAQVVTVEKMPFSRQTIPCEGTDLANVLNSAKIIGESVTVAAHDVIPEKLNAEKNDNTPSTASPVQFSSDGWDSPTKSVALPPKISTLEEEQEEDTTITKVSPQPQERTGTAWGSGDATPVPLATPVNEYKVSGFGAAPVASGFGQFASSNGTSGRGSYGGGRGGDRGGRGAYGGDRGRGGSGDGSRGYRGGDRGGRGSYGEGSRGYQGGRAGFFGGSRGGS
# Procedure: as §1, §2, §3, §4, §5
# [1] = test system: FUS-SNAP condensates versus PGL-3 condensates; assay: Condensate preference: ratio of FUS-SNAP I-in:I-out to PGL-3 I-in:I-out; details: average FUS-SNAP I-in:I-out divided by average PGL-3 I-in:I-out
# Procedure: as §5
Ratio of intensity inside:outside FUS-SNAP Condensates Day 1 (FUS-SNAP condensates),Intensity Inside with Dye Average (FUS-SNAP condensates),Intensity Inside with Dye 1 (FUS-SNAP condensates),Intensity Inside with Dye 2 (FUS-SNAP condensates),Intensity Inside with Dye 3 (FUS-SNAP condensates),Intensity Inside Dye-No Dye (FUS-SNAP condensates),Intensity Outside with Dye Average (FUS-SNAP condensates),Intensity Outside with Dye 1 (FUS-SNAP condensates),Intensity Outside with Dye 2 (FUS-SNAP condensates),Intensity Outside with Dye 3 (FUS-SNAP condensates),Intensity Outside (Dye-No Dye) (FUS-SNAP condensates),"Ratio of intensity inside:outside PGL-3 Condensates Day 2 (PGL-3 condensates; I-in:I-out, 10 μM dye)",Intensity Inside with Dye Average (PGL-3 condensates; 10 μM dye),Intensity Inside with Dye 1 (PGL-3 condensates; 10 μM dye),Intensity Inside with Dye 2 (PGL-3 condensates; 10 μM dye),Intensity Inside with Dye 3 (PGL-3 condensates; 10 μM dye),Intensity Inside Dye-No Dye (PGL-3 condensates),Intensity Outside with Dye Average (PGL-3 condensates; 10 μM dye),Intensity Outside with Dye 1 (PGL-3 condensates; 10 μM dye),Intensity Outside with Dye 2 (PGL-3 condensates; 10 μM dye),Compound,other results
1.7,5354.9,5285.1,5631.6,5148.0,5219.7,3178.8,3064.0,3267.0,3205.5,3074.8,1.0,3538.6,3527.5,3608.1,3480.3,3392.1,3496.8,3491.4,3551.4,6-[Fluorescein-5(6)-carboxamido]-hexanoic acid [Dye 8],"Ratio of intensity inside:outside FUS-SNAP Condensates Day 2 (FUS-SNAP condensates): 1.6; Ratio of intensity inside:outside FUS-SNAP Condensates Average (FUS-SNAP condensates): 1.6; Ratio of intensity inside:outside PGL-3 Condensates Day 1 (PGL-3 condensates; I-in:I-out, 10 μM dye): 1.0; Ratio of intensity inside:outside PGL-3 Condensates Average (PGL-3 condensates; I-in:I-out, average of two days, 10 μM dye): 1.0; Intensity Outside with Dye 3 (PGL-3 condensates; 10 μM dye): 3447.6; Intensity Outside (Dye-No Dye) (PGL-3 condensates): 3391.4; Ratio of FUS-SNAP:PGL-3 [1]: 1.6"
1.9,6034.1,5836.4,6036.1,6229.9,1821.5,1485.0,1487.5,1414.8,1552.6,934.8,−0.4,828.6,824.1,801.2,860.4,231.3,269.2,269.6,264.9,"CC(=O)Oc1ccc2c(c1)Oc1cc(OC(C)=O)ccc1C21OC(=O)c2ccccc21 [Dye 9, Fluorescein diacetate]","Ratio of intensity inside:outside FUS-SNAP Condensates Day 2 (FUS-SNAP condensates): 1.5; Ratio of intensity inside:outside FUS-SNAP Condensates Average (FUS-SNAP condensates): 1.7; Ratio of intensity inside:outside PGL-3 Condensates Day 1 (PGL-3 condensates; I-in:I-out, 10 μM dye): 2.2; Intensity Outside with Dye 3 (PGL-3 condensates; 10 μM dye): 273.2; Intensity Outside (Dye-No Dye) (PGL-3 condensates): 106.3"
−2.3,478.0,456.2,508.6,469.3,−19.5,148.6,150.1,142.8,152.9,8.5,1.9,690.1,689.4,656.9,723.9,92.8,206.4,208.4,203.2,"O=C1OC2(c3ccc(O[C@@H]4O[C@H](CO)[C@H](O)[C@H](O)[C@H]4O)cc3Oc3cc(O[C@@H]4O[C@H](CO)[C@H](O)[C@H](O)[C@H]4O)ccc32)c2ccccc21 [Dye 12, Fluorescein di(β-D-galacto-pyranoside)]","Ratio of intensity inside:outside PGL-3 Condensates Day 1 (PGL-3 condensates; I-in:I-out, 10 μM dye): 2.1; Intensity Outside with Dye 3 (PGL-3 condensates; 10 μM dye): 207.7; Intensity Outside (Dye-No Dye) (PGL-3 condensates): 43.5"
70.8,3480.0,3084.2,3756.7,3599.3,−732.6,539.8,559.0,527.6,532.7,−10.3,3.3,6487.9,6831.9,6829.0,5802.8,1228.1,1263.8,1289.1,1266.2,"CC/N=c1/cc2oc3cc(NCC)c(C)cc3c(-c3ccccc3C(=O)NCCOCCOCCN)c-2cc1C.O=C(O)C(F)(F)F [Dye 15, N-(8-Amino-3,6-dioxaoctyl)-rhodamine 6G-amide bis(trifluoroacetate)]",Intensity Outside with Dye 3 (PGL-3 condensates; 10 μM dye): 1236.3; Intensity Outside (Dye-No Dye) (PGL-3 condensates): 555.7
